Measured values taken from ChEMBL document CHEMBL3885881, “DrugMatrix”.

Species: Rattus norvegicus
Experiment: DrugMatrix - Regimen: Daily Repeat
Format: toxicity, organism-based, Sprague-Dawley
Parameters: regimen Daily Repeat, gender Male, age 6-8 weeks
Details: in vivo, po, route oral GAVAGE, […]; for ABSOLUTE BASOPHIL / ABSOLUTE EOSINOPHIL / ABSOLUTE LYMPHOCYTE / ABSOLUTE MONOCYTE / ABSOLUTE SEGMENTED NEUTROPHIL / BASOPHIL / EOSINOPHIL / ERYTHROCYTE COUNT / HEMATOCRIT / HEMOGLOBIN / LEUKOCYTE COUNT / LYMPHOCYTE / MEAN CORPUSCULAR HEMOGLOBIN / MEAN CORPUSCULAR HEMOGLOBIN CONCENTRATION / MEAN CORPUSCULAR VOLUME / MONOCYTE / NEUTROPHIL / NUCLEATED RED BLOOD CELLS / PLATELET COUNT: tissue Blood; for ALANINE AMINOTRANSFERASE / ALBUMIN / ALKALINE PHOSPHATASE / ASPARTATE AMINOTRANSFERASE / BLOOD UREA NITROGEN / CARBON DIOXIDE / CHLORIDE / CHOLESTEROL / CREATINE PHOSPHOKINASE / CREATININE / GLUCOSE / LACTATE DEHYDROGENASE / LIPASE / PHOSPHORUS / POTASSIUM / SODIUM / TOTAL BILIRUBIN / TOTAL PROTEIN / URIC ACID: tissue Plasma
[1] = 79 mg/kg, 72 h, dose level Low, time 3 day
[2] = 79 mg/kg, 120 h, dose level Low, time 5 day
[3] = 2500 mg/kg, 72 h, dose level High, time 3 day
[4] = 2500 mg/kg, 120 h, dose level High, time 5 day

## COc1ccc2cc(CCC(C)=O)ccc2c1 [NABUMETONE]
[1]
  ABSOLUTE BASOPHIL: 0 CELLS/uL
  ABSOLUTE EOSINOPHIL: 0 CELLS/uL
  ABSOLUTE LYMPHOCYTE: 14572 CELLS/uL
  ABSOLUTE MONOCYTE: 0 CELLS/uL
  ABSOLUTE SEGMENTED NEUTROPHIL: 1228 CELLS/uL
  BASOPHIL: 0%
  EOSINOPHIL: 0%
  ERYTHROCYTE COUNT: 5.17 x10E6/uL
  HEMATOCRIT: 32.13%
  HEMOGLOBIN: 12.87 G/DL
  LEUKOCYTE COUNT: 15.8 x10E3/uL
  LYMPHOCYTE: 92.33%
  MEAN CORPUSCULAR HEMOGLOBIN: 24.87 pg
  MEAN CORPUSCULAR HEMOGLOBIN CONCENTRATION: 40.07 G/DL
  MEAN CORPUSCULAR VOLUME: 62.1 fL
  MONOCYTE: 0%
  NEUTROPHIL: 7.67%
  NUCLEATED RED BLOOD CELLS: 0 /100WBC
  PLATELET COUNT: 1308.67 x10E3/uL
  ALANINE AMINOTRANSFERASE: 72.33 u/L
  ALBUMIN: 4 G/DL
  ALKALINE PHOSPHATASE: 371 u/L
  ASPARTATE AMINOTRANSFERASE: 79.33 u/L
  BLOOD UREA NITROGEN: 15.67 mg/dL
  CARBON DIOXIDE: 31 mmol/L
  CHLORIDE: 103 MEQ/L
  CHOLESTEROL: 83.67 mg/dL
  CREATINE PHOSPHOKINASE: 226.33 u/L
  CREATININE: 0.12 mg/dL
  GLUCOSE: 150.67 mg/dL
  LACTATE DEHYDROGENASE: 93.33 u/L
  LIPASE: 10 u/L
  PHOSPHORUS: 12.3 mg/dL
  POTASSIUM: 6.52 MEQ/L
  SODIUM: 144.77 MEQ/L
  TOTAL BILIRUBIN: 0.13 mg/dL
  TOTAL PROTEIN: 5.33 G/DL
  URIC ACID: 1.73 mg/dL
[2]
  ABSOLUTE BASOPHIL: 0 CELLS/uL
  ABSOLUTE EOSINOPHIL: 33.67 CELLS/uL
  ABSOLUTE LYMPHOCYTE: 9495 CELLS/uL
  ABSOLUTE MONOCYTE: 148 CELLS/uL
  ABSOLUTE SEGMENTED NEUTROPHIL: 1090 CELLS/uL
  BASOPHIL: 0%
  EOSINOPHIL: 0.33%
  ERYTHROCYTE COUNT: 5.45 x10E6/uL
  HEMATOCRIT: 33.1%
  HEMOGLOBIN: 13.23 G/DL
  LEUKOCYTE COUNT: 10.77 x10E3/uL
  LYMPHOCYTE: 88.33%
  MEAN CORPUSCULAR HEMOGLOBIN: 24.3 pg
  MEAN CORPUSCULAR HEMOGLOBIN CONCENTRATION: 39.97 G/DL
  MEAN CORPUSCULAR VOLUME: 60.83 fL
  MONOCYTE: 1.33%
  NEUTROPHIL: 10%
  NUCLEATED RED BLOOD CELLS: 0 /100WBC
  PLATELET COUNT: 1115 x10E3/uL
  ALANINE AMINOTRANSFERASE: 69.33 u/L
  ALBUMIN: 4.1 G/DL
  ALKALINE PHOSPHATASE: 332 u/L
  ASPARTATE AMINOTRANSFERASE: 95.67 u/L
  BLOOD UREA NITROGEN: 12.33 mg/dL
  CARBON DIOXIDE: 33 mmol/L
  CHLORIDE: 103 MEQ/L
  CHOLESTEROL: 61.33 mg/dL
  CREATINE PHOSPHOKINASE: 321 u/L
  CREATININE: 0.15 mg/dL
  GLUCOSE: 173.33 mg/dL
  LACTATE DEHYDROGENASE: 214.67 u/L
  LIPASE: 9.67 u/L
  PHOSPHORUS: 11.03 mg/dL
  POTASSIUM: 5.83 MEQ/L
  SODIUM: 145.17 MEQ/L
  TOTAL BILIRUBIN: 0.13 mg/dL
  TOTAL PROTEIN: 5.53 G/DL
  URIC ACID: 1.13 mg/dL
[3]
  ABSOLUTE BASOPHIL: 0 CELLS/uL
  ABSOLUTE EOSINOPHIL: 0 CELLS/uL
  ABSOLUTE LYMPHOCYTE: 9646 CELLS/uL
  ABSOLUTE MONOCYTE: 275 CELLS/uL
  ABSOLUTE SEGMENTED NEUTROPHIL: 3829 CELLS/uL
  BASOPHIL: 0%
  EOSINOPHIL: 0%
  ERYTHROCYTE COUNT: 4.08 x10E6/uL
  HEMATOCRIT: 26.8%
  HEMOGLOBIN: 10.45 G/DL
  LEUKOCYTE COUNT: 13.75 x10E3/uL
  LYMPHOCYTE: 70%
  MEAN CORPUSCULAR HEMOGLOBIN: 25.55 pg
  MEAN CORPUSCULAR HEMOGLOBIN CONCENTRATION: 38.9 G/DL
  MEAN CORPUSCULAR VOLUME: 65.7 fL
  MONOCYTE: 2%
  NEUTROPHIL: 28%
  NUCLEATED RED BLOOD CELLS: 0 /100WBC
  PLATELET COUNT: 873.5 x10E3/uL
  ALANINE AMINOTRANSFERASE: 41 u/L
  ALBUMIN: 2.7 G/DL
  ALKALINE PHOSPHATASE: 286.5 u/L
  ASPARTATE AMINOTRANSFERASE: 125 u/L
  BLOOD UREA NITROGEN: 15.5 mg/dL
  CARBON DIOXIDE: 28.5 mmol/L
  CHLORIDE: 94 MEQ/L
  CHOLESTEROL: 75 mg/dL
  CREATINE PHOSPHOKINASE: 410 u/L
  CREATININE: 0.17 mg/dL
  GLUCOSE: 134 mg/dL
  LACTATE DEHYDROGENASE: 144 u/L
  LIPASE: 9 u/L
  PHOSPHORUS: 12 mg/dL
  POTASSIUM: 6.89 MEQ/L
  SODIUM: 136.5 MEQ/L
  TOTAL BILIRUBIN: 0.1 mg/dL
  TOTAL PROTEIN: 4.95 G/DL
  URIC ACID: 1.35 mg/dL
[4]
  ABSOLUTE BASOPHIL: 0 CELLS/uL
  ABSOLUTE EOSINOPHIL: 0 CELLS/uL
  ABSOLUTE LYMPHOCYTE: 3068 CELLS/uL
  ABSOLUTE MONOCYTE: 0 CELLS/uL
  ABSOLUTE SEGMENTED NEUTROPHIL: 8732 CELLS/uL
  BASOPHIL: 0%
  EOSINOPHIL: 0%
  ERYTHROCYTE COUNT: 2.58 x10E6/uL
  HEMATOCRIT: 15.9%
  HEMOGLOBIN: 6.6 G/DL
  LEUKOCYTE COUNT: 11.8 x10E3/uL
  LYMPHOCYTE: 26%
  MEAN CORPUSCULAR HEMOGLOBIN: 25.6 pg
  MEAN CORPUSCULAR HEMOGLOBIN CONCENTRATION: 41.5 G/DL
  MEAN CORPUSCULAR VOLUME: 61.8 fL
  MONOCYTE: 0%
  NEUTROPHIL: 74%
  NUCLEATED RED BLOOD CELLS: 0 /100WBC
  PLATELET COUNT: 1731 x10E3/uL
  ALANINE AMINOTRANSFERASE: 34 u/L
  ALBUMIN: 2.4 G/DL
  ALKALINE PHOSPHATASE: 326 u/L
  ASPARTATE AMINOTRANSFERASE: 66 u/L
  BLOOD UREA NITROGEN: 17 mg/dL
  CARBON DIOXIDE: 28 mmol/L
  CHLORIDE: 97 MEQ/L
  CHOLESTEROL: 55 mg/dL
  CREATINE PHOSPHOKINASE: 158 u/L
  CREATININE: 0.13 mg/dL
  GLUCOSE: 102 mg/dL
  LACTATE DEHYDROGENASE: 80 u/L
  LIPASE: 9 u/L
  PHOSPHORUS: 7.6 mg/dL
  POTASSIUM: 6.79 MEQ/L
  SODIUM: 138 MEQ/L
  TOTAL BILIRUBIN: 0.2 mg/dL
  TOTAL PROTEIN: 4.7 G/DL
  URIC ACID: 0.9 mg/dL
